Assay results as given in publication PMC10247784, “Physiological activation of human and mouse bitter taste receptors by bile acids” (Communications Biology, 2023).
“And” between values parts separate entries of the source, which are not always exact repeats. Equal entries are not always repeated.

Target: T1, human TAS2R1 (Homo sapiens, UniProt Q9NYW7)
T1 construct: expressed in transfected cells; host or cells: HEK293T-Gα16gust44
T1 sequence (Q9NYW7 1-299): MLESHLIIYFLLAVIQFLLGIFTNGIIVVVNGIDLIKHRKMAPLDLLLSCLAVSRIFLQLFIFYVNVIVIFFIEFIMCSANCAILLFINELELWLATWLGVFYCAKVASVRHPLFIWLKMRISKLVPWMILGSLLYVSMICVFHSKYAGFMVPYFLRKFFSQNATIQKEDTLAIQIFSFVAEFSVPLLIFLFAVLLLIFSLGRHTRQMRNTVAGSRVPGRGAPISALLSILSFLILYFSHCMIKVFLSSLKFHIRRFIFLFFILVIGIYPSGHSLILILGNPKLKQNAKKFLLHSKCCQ
Experiment: Calcium imaging assay (FLIPR), HEK293T-Gα16gust44 cells transfected with human TAS2R1
Assay type: cell-based
Outline: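 Bile acids from DMSO stocks are applied to dye-loaded cells one day after transient receptor transfection, and calcium-dependent fluorescence is recorded. Maximum signal is standardized to basal and normalized to buffer-only wells, with empty-vector signal subtracted.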

## C[C@H](CCC(=O)NCCS(=O)(=O)O)[C@H]1CC[C@H]2[C@@H]3[C@H](O)C[C@@H]4C[C@H](O)CC[C@]4(C)[C@H]3C[C@H](O)[C@]12C [Taurocholic Acid, taurocholic acid]
TAS2R1, bile acids, mean
  Efficacy = maximal amplitude (ΔF/F): 0.09987
TAS2R1, bile acids, single replicates, listed as TCA
  Efficacy (maximal amplitude ΔF/F), individual data points: 0.08896 and 0.09306 and 0.1176
Time 0 s (second time grid)
  RLU: 0 RLU
Time 2 s
  RLU: 7.952 RLU
Time 4 s
  RLU: 20.145 RLU
Time 6 s
  RLU: -3.167 RLU
Time 8 s
  RLU: -1.092 RLU
Time 12 s
  RLU: 4.801 RLU
Time 14 s
  RLU: 10.0652 RLU
Time 16 s
  RLU: -4.025 RLU
Time 18 s
  RLU: 30.6672 RLU
Time 18.781 s
  RLU: -8.288 RLU
Time 20.781 s
  RLU: 38.1129 RLU
Time 22.781 s
  RLU: 36.5466 RLU
Time 24.781 s
  RLU: 100.781 RLU
Time 26.781 s
  RLU: 94.321 RLU
Time 28.781 s
  RLU: 128.096 RLU
Time 30.781 s
  RLU: 168.752 RLU
Time 32.781 s
  RLU: 222.063 RLU
Time 34.781 s
  RLU: 248.838 RLU
Time 36.781 s
  RLU: 287.098 RLU
Time 38.781 s
  RLU: 303.962 RLU
Time 40.781 s
  RLU: 295.88 RLU
Time 42.781 s
  RLU: 354.401 RLU
Time 44.781 s
  RLU: 378.941 RLU
Time 46.781 s
  RLU: 349.497 RLU
Time 48.781 s
  RLU: 364.135 RLU
Time 50.781 s
  RLU: 379.282 RLU
Time 52.781 s
  RLU: 390.659 RLU
Time 54.781 s
  RLU: 392.471 RLU
Time 56.781 s
  RLU: 396.221 RLU
Time 58.781 s
  RLU: 410.391 RLU
Time 60.781 s
  RLU: 390.107 RLU
Time 62.781 s
  RLU: 396.638 RLU
Time 64.781 s
  RLU: 407.599 RLU
Time 66.781 s
  RLU: 435.147 RLU
Time 68.781 s
  RLU: 406.802 RLU
Time 70.781 s
  RLU: 400.242 RLU
Time 72.781 s
  RLU: 418.773 RLU
Time 74.781 s
  RLU: 413.176 RLU
Time 76.781 s
  RLU: 422.764 RLU
Time 78.781 s
  RLU: 402.418 RLU
Time 80.781 s
  RLU: 440.793 RLU
Time 82.781 s
  RLU: 428.932 RLU
Time 84.781 s
  RLU: 402.626 RLU
Time 86.781 s
  RLU: 438.62 RLU
Time 88.781 s
  RLU: 435.97 RLU
Time 90.781 s
  RLU: 417.798 RLU
Time 92.781 s
  RLU: 396.047 RLU
Time 94.781 s
  RLU: 416.808 RLU
Time 96.781 s
  RLU: 401 RLU
Time 98.781 s
  RLU: 382.662 RLU
Time 100.781 s
  RLU: 386.609 RLU
Time 102.781 s
  RLU: 391.574 RLU
Time 104.781 s
  RLU: 343.693 RLU
Time 106.781 s
  RLU: 334.229 RLU
Time 108.781 s
  RLU: 318.822 RLU
Time 110.781 s
  RLU: 359.901 RLU
Time 112.781 s
  RLU: 338.629 RLU
Time 114.781 s
  RLU: 327.9 RLU
Time 116.781 s
  RLU: 308.179 RLU
Time 118.781 s
  RLU: 311.101 RLU
Time 120.781 s
  RLU: 314.431 RLU
Time 122.781 s
  RLU: 288.825 RLU
Time 124.781 s
  RLU: 292.111 RLU
Time 126.781 s
  RLU: 280.428 RLU
Time 128.781 s
  RLU: 264.252 RLU
Time 130.781 s
  RLU: 247.5 RLU
Time 132.781 s
  RLU: 279.196 RLU
Time 134.781 s
  RLU: 263.266 RLU
Time 136.781 s
  RLU: 260.122 RLU
Time 137.547 s
  RLU: 257.068 RLU
Time 143.547 s
  RLU: 228.429 RLU
Time 149.547 s
  RLU: 221.043 RLU
Time 155.547 s
  RLU: 204.711 RLU
Time 161.547 s
  RLU: 175.173 RLU
Time 167.547 s
  RLU: 178.916 RLU
Time 173.547 s
  RLU: 141.583 RLU
Time 179.547 s
  RLU: 150.852 RLU
Time 185.547 s
  RLU: 123.705 RLU
Time 191.547 s
  RLU: 70.5412 RLU
Time 197.547 s
  RLU: 46.3148 RLU
Time 203.547 s
  RLU: 75.6277 RLU
Time 209.547 s
  RLU: 55.0459 RLU
Time 215.547 s
  RLU: 35.7219 RLU
Time 221.547 s
  RLU: 50.9362 RLU
Time 227.547 s
  RLU: 33.794 RLU
Time 233.547 s
  RLU: 65.6166 RLU
Time 239.547 s
  RLU: 27.332 RLU
Time 245.547 s
  RLU: 17.8718 RLU
Time 293.547 s
  RLU: -10.6071 RLU
Time 299.547 s
  RLU: -16.6248 RLU
Calcium trace, sheet TAS2R1, Time 305.547 s
  RLU: -3.144 RLU
Calcium trace, sheet TAS2R1, Time 311.547 s
  RLU: 2.9951 RLU
Calcium trace, sheet TAS2R1, Time 317.547 s
  RLU: -15.9144 RLU
Calcium trace, sheet TAS2R1, Time 323.547 s
  RLU: -10.1142 RLU
Calcium trace, sheet TAS2R1, Time 329.547 s
  RLU: 11.6208 RLU
Calcium trace, sheet TAS2R1, Time 335.547 s
  RLU: 11.3706 RLU
Calcium trace, sheet TAS2R1, Time 341.547 s
  RLU: 7.052 RLU
Calcium trace, sheet TAS2R1, Time 347.547 s
  RLU: 31.851 RLU
Calcium trace, sheet TAS2R1, Time 353.547 s
  RLU: 3.282 RLU
Calcium trace, sheet TAS2R1, Time 359.547 s
  RLU: 34.6741 RLU
conc. 0,01 mM, TAS2R1
  Δ F/F: 0.007126
conc. 0,1 mM, TAS2R1
  Δ F/F: 0.04642
conc. 0,03 mM, TAS2R1
  Δ F/F: 0.01897
conc. 0,3 mM, TAS2R1
  Δ F/F: 0.09987
conc. 0,001 mM, TAS2R1
  Δ F/F: 0.004203
conc. 0,003 mM, TAS2R1
  Δ F/F: 0.00592
Lowest concentration with significantly increased fluorescence vs empty vector (p < 0.01)
  Activation threshold concentration TAS2R1: 100 µM and 100.00 µM
